Holding throughout (assay type): in vivo
Assay [1] has as its system Spodoptera littoralis (Egyptian cotton leaf worm). Description: Example B1: Spodoptera littoralis larvicide, feeding/residual contact activity, preventive (cotton leaf discs). As to conditions: foliar, 72 h, L1 larvae on sprayed cotton leaf discs, 3 days after treatment, read-out: effect in at least one of the three categories (mortality, anti-feedancy, or growth inhibition). The text has this:
Example B1: Activity Against Spodoptera littoralis (Egyptian Cotton Leaf Worm)
(§1) (Larvicide, Feeding/Residual Contact Activity, Preventive)
Cotton leaf discs were placed on agar in a 24-well microtiter plate and sprayed with test solutions. After drying, the leaf discs were infested with five L1 larvae. The samples were checked for mortality, repellent effect, feeding behaviour, and growth regulation 3 days after treatment (DAT). Control of Spodoptera littoralis by a test sample is when at least one of mortality, anti-feedant effect, and growth inhibition is higher than an untreated sample.

The test system is the same in assay [2]. Description: Example B2: Spodoptera littoralis systemic activity (lettuce on agar). The conditions noted are these: 120 h, systemic via lettuce roots, 5 days after infestation, read-out: effect in at least one of the three categories (mortality, anti-feedancy, or growth inhibition). The text has this:
Example B2: Activity Against Spodoptera littoralis (Egyptian Cotton Leaf Worm)
Test compounds were applied by pipette into 24 well plates and mixed with agar. Lettuce seeds were placed on the agar and the multi well plate is closed by another plate which contains also agar. After 7 days the roots have absorbed the compound and the lettuce has grown into the lid plate. The lettuce leaves were now cut off into the lid plate. Spodoptera eggs were pipetted through a plastic stencil on a humid gel blotting paper and the plate closed with it. The samples are checked for mortality, repellent effect, feeding behavior, and growth regulation 5 days after infestation.

In assay [3] the test system is Myzus persicae (green peach aphid). The assay can be described thus: Example B5: Myzus persicae feeding/residual contact activity, preventive, mixed population (sunflower leaf discs). As to conditions: foliar, 144 h, mixed population on sunflower leaf discs, 6 DAT. On the procedure: Example B5: Activity Against Myzus persicae (Green Peach Aphid)
(Feeding/Residual Contact Activity, Preventive), Mixed Population
Sunflower leaf discs were placed on agar in a 24-well microtiter plate and sprayed with test solutions. After drying, the leaf discs were infested with an aphid population of mixed ages. After an incubation period of 6 DAT, samples were checked for mortality and special effects (e.g. phytotoxicity).

Assay [4] concerns Diabrotica balteata (corn root worm). Description: Example B4: Diabrotica balteata larvae L2 on maize sprouts, feeding/contact, preventative. As to conditions: 120 h, 5 days, read-out: activity (larval mortality and growth regulation). The procedure:
Example B4: Activity Against Diabrotica balteata (Corn Root Worm)
(Larvae L2 on Maize Sprouts, Feeding/Contact, Preventative)
Maize sprouts, placed on an agar layer in 24 well micro titer plates were treated with test solutions by spraying. After drying, the MTPs were infested with L2 larvae (6-10 per well). After an incubation period of 5 days, samples were checked for larval mortality and growth regulation.

Assay [5] has as its system Tetranychus urticae (two-spotted spider mite). Description: Example B10: Tetranychus urticae, bean leaf disc spray test. The conditions noted are these: foliar, 192 h. On the procedure: Example B10: Activity Against Tetranychus urticae (Two-Spotted Spider Mite)
Bean leaf discs on agar in 24-well microtiter plates were sprayed with aqueous test solutions prepared from 10′000 ppm DMSO stock solutions. After drying the leaf discs were infested with a mite population of mixed ages. The samples were assessed for mortality on mixed population (mobile stages) 8 days after infestation.

Assay [6] has as its system Bemisia tabaci (cotton white fly). The assay can be described thus: Example B7: Bemisia tabaci adulticide contact activity, preventative (cotton leaf discs). As to conditions: foliar, 168 h, adult white flies on cotton leaf discs, 7 DAT. The procedure:
Example B7: Activity Against Bemisia tabaci (Cotton White Fly)
(Adulticide Contact Activity, Preventative), Adult
Cotton leaf discs were placed on agar in a 24-well microtiter plate and sprayed with test solutions. After drying, the leaf discs were infested with adult white flies. After an incubation period of 7 DAT, samples were checked for mortality and special effects (e.g. phytotoxicity).

For assay [7], the system named is Myzus persicae (green peach aphid). The assay can be described thus: Example B9: Myzus persicae systemic/feeding activity, curative, mixed population (pea seedling roots). The conditions noted are these: 144 h, pea seedling roots in test solution, 6 days after introduction. The text has this: Example B9: Activity Against Myzus persicae (Green Peach Aphid)
(Systemic/Feeding Activity, Curative), Mixed Population
Roots of pea seedlings, infested with an aphid population of mixed ages, were placed directly in the test solutions. 6 days after introduction, samples were checked for mortality and special effects on the plant.

For assay [8], the system named is Euschistus heros (neotropical brown stink bug). The assay can be described thus: Example B8: Euschistus heros, soybean leaf spray test. The conditions noted are these: 120 h, N-2 nymphs on soybean leaf, 5 days after infestation. On the procedure:
Example B8: Activity Against Euschistus heros (Neotropical Brown Stink Bug)
Soybean leaf on agar in 24-well microtiter plates were sprayed with aqueous test solutions prepared from 10,000 ppm DMSO stock solutions. After drying the leaf were infested with N-2 nymphs. The samples were assessed for mortality 5 days after infestation.

The subject of assay [9] is Plutella xylostella (diamond back moth). The assay can be described thus: Example B3: Plutella xylostella larvicide, feeding/residual contact activity, preventive (artificial diet). The conditions noted are these: 120 h, L2 larvae on artificial diet, 5 days, read-out: activity (larval mortality, antifeedant and growth regulation). On the procedure: Example B3: Activity Against Plutella xylostella (Diamond Back Moth)
as §1
24-well microtiter plate (MTP) with artificial diet was treated with test solutions by pipetting. After drying, the MTPs were infested with L2 larvae (10-15 per well). After an incubation period of 5 days, samples were checked for larval mortality, antifeedant and growth regulation.

Assay [10] deals with Myzus persicae (green peach aphid). The assay can be described thus: Example B6: Myzus persicae feeding activity sachet test, mixed population. The conditions noted are these: 120 h, sucrose solution, 5 days after infestation. The text has this:
Example B6: Activity Against Myzus persicae (Green Peach Aphid)
(Feeding Activity Sachet Test), Mixed Population
Test compounds were applied by pipette into 24 well plates and mixed with Sucrose solution. The plates were closed with a stretched Parafilm. A plastic stencil with 24 holes is placed onto the plate and infested pea seedlings were placed directly on the Parafilm. The infested plate is closed with a gel blotting paper and another plastic stencil and then turned upside down. 5 days after infestation the samples were checked on mortality. Application rate: 12.5 ppm.

Structures are written as SMILES.

For `CCS(=O)(=O)c1cc(C(F)(F)F)cnc1-c1ncc(-c2cc(C(F)(F)F)ccn2)n1C` [Compound P3], the percent control (mortality, anti-feedancy or growth inhibition) at 400 ppm in assay [1] is no less than 80%. The percent control (mortality, anti-feedancy or growth inhibition) at 12.5 ppm in [2] is no less than 80%. Also, the mortality (usually the percentage killed) at 400 ppm in assay [3] was greater than 80%; in assay [4], greater than 80%; in assay [5], no less than 80%.

With `CCS(=O)(=O)c1cc(C(F)(F)F)cnc1-c1ncc(-c2ccc(C(F)(F)F)nc2)n1C` [Compound P4], the mortality at 400 ppm in [6], in [3], in [8], in assay [9] and in assay [4] was greater than 80% in each case. The percent control (mortality, anti-feedancy or growth inhibition) at 400 ppm in assay [1] was no less than 80%. Also, in assay [2], the percent control (mortality, anti-feedancy or growth inhibition) at 12.5 ppm is no less than 80%. Further, the mortality at 24 ppm in assay [7] is no less than 80%.

`CCS(=O)(=O)c1cc(C(F)(F)F)cnc1-c1ncc(-c2ccnc(C(F)(F)F)c2)n1C` [Compound P6]: the mortality at 400 ppm in [6], in [3], in [9] and in assay [4] was greater than 80% in each case. The percent control (mortality, anti-feedancy or growth inhibition) at 400 ppm in assay [1] was no less than 80%.

In the case of `CCS(=O)(=O)c1cc(C(F)(F)F)cnc1-c1ncc(-c2cccc(C(F)(F)F)n2)n1C` [Compound P8], the percent control (mortality, anti-feedancy or growth inhibition) at 400 ppm in assay [1] is no less than 80%. The mortality at 400 ppm in assay [3] and in assay [8] was greater than 80% each time.

In the case of `CCS(=O)(=O)c1cc(C(F)(F)F)ccc1-c1ncc(-c2ccc(C(F)(F)F)cc2)n1C` [Compound P9], the mortality at 400 ppm in [6], in [3], in assay [9] and in assay [4] was greater than 80% throughout. In assay [1], the percent control (mortality, anti-feedancy or growth inhibition) at 400 ppm was no less than 80%. The percent control (mortality, anti-feedancy or growth inhibition) at 12.5 ppm in [2] was no less than 80%.

On to `CCS(=O)(=O)c1cc(C(F)(F)F)ccc1-c1ncc(-c2ccc(C(F)(F)F)nc2)n1C` [Compound P10], for which the mortality at 400 ppm in assay [6], in assay [3], in assay [9] and in [4] was greater than 80% throughout. Besides, the percent control (mortality, anti-feedancy or growth inhibition) at 400 ppm in assay [1] was no less than 80%. In addition, the percent control (mortality, anti-feedancy or growth inhibition) at 12.5 ppm in assay [2] was no less than 80%.

Take `CCS(=O)(=O)c1cc(C(F)(F)F)cnc1-c1ncc(-c2ccc(S(=O)(=O)C(F)(F)F)cc2)n1C` [Compound P12]: the percent control (mortality, anti-feedancy or growth inhibition) at 400 ppm in assay [1] was no less than 80%. The percent control (mortality, anti-feedancy or growth inhibition) at 12.5 ppm in assay [2] was no less than 80%. The mortality at 400 ppm in [9] and in [4] was greater than 80% in each case.

For the compound `CCS(=O)(=O)c1cc(C(F)(F)F)cnc1-c1ncc(-c2ccc(SC(F)(F)F)cc2)n1C` [Compound P15], the mortality at 400 ppm in assay [6], in assay [3], in assay [8], in [9] and in assay [4] was greater than 80% each time. Besides, the percent control (mortality, anti-feedancy or growth inhibition) at 400 ppm in assay [1] was no less than 80%. The percent control (mortality, anti-feedancy or growth inhibition) at 12.5 ppm in assay [2] is no less than 80%.

For `CCS(=O)(=O)c1cc(C(F)(F)F)cnc1-c1ncc(-c2ccc(Cl)c(F)c2)n1C` [Compound P25], the mortality at 12.5 ppm in assay [10] was no less than 80%. Besides, the percent control (mortality, anti-feedancy or growth inhibition) at 400 ppm in [1] was no less than 80%. Further, the mortality at 400 ppm in [8], in assay [9] and in [4] was greater than 80% in each case.

In turn, `CCS(=O)(=O)c1cc(C(F)(F)F)cnc1-c1ncc(-c2ccc(Cl)c(C(F)(F)F)c2)n1C` [Compound P38] registered a mortality at 12.5 ppm in assay [10] of no less than 80%. Moreover, the percent control (mortality, anti-feedancy or growth inhibition) at 400 ppm in assay [1] is no less than 80%. The mortality at 400 ppm in [8], in [9] and in [4] was greater than 80% each time.

In assay [10], `CCS(=O)(=O)c1cc(C(F)(F)F)cnc1-c1ncc(-c2ccnc(F)c2)n1C` [Compound P39] showed a mortality at 12.5 ppm of no less than 80%. Also, in assay [1], the percent control (mortality, anti-feedancy or growth inhibition) at 400 ppm is no less than 80%. In assay [7], this compound gave a mortality at 24 ppm of no less than 80%. The mortality at 400 ppm in assay [9] and in assay [4] was greater than 80% throughout.

In the case of `CCS(=O)(=O)c1cc(C(F)(F)F)cnc1-c1ncc(-c2ccc(OC(F)(F)F)cc2)n1C` [Compound P40], the mortality at 12.5 ppm in assay [10] was no less than 80%. For the same compound, the percent control (mortality, anti-feedancy or growth inhibition) at 400 ppm in assay [1] is no less than 80%. Moreover, the mortality at 400 ppm in assay [8], in assay [9] and in assay [4] was greater than 80% throughout.

Turning to `CCS(=O)(=O)c1cc(C(F)(F)F)cnc1-c1ncc(-c2cnc(C(F)(F)F)nc2)n1C` [Compound P50], in assay [10], the mortality at 12.5 ppm is no less than 80%. The percent control (mortality, anti-feedancy or growth inhibition) at 400 ppm in [1] was no less than 80%. This compound also gave a mortality at 24 ppm in assay [7] of no less than 80%. Further, the mortality at 400 ppm in [9] and in assay [4] was greater than 80% throughout.

The compound `CCS(=O)(=O)c1cc(C(F)(F)F)cnc1-c1ncc(-c2ccc(F)nc2)n1C` [Compound P54] registered a mortality at 12.5 ppm in assay [10] of no less than 80%. Further, the percent control (mortality, anti-feedancy or growth inhibition) at 400 ppm in assay [1] was no less than 80%. This compound also came in with a mortality at 24 ppm in assay [7] of no less than 80%. Further, the mortality at 400 ppm in assay [9] and in [4] was greater than 80% each time.

Source of the values: patent US9988366B2, “Pesticidally active heterocyclic derivatives with sulphur containing substituents” (Syngenta Participations AG, priority 2014, dated 2018).
